Assays:
Estrogen receptor beta = Estrogen receptor beta (Homo sapiens, UniProt Q92731)
Glucagon receptor = Glucagon receptor (Homo sapiens, UniProt P47871)
[1] = biological target: T1, Endothelin receptor type B (Homo sapiens, UniProt P24530)
T1 sequence (P24530 whole entry): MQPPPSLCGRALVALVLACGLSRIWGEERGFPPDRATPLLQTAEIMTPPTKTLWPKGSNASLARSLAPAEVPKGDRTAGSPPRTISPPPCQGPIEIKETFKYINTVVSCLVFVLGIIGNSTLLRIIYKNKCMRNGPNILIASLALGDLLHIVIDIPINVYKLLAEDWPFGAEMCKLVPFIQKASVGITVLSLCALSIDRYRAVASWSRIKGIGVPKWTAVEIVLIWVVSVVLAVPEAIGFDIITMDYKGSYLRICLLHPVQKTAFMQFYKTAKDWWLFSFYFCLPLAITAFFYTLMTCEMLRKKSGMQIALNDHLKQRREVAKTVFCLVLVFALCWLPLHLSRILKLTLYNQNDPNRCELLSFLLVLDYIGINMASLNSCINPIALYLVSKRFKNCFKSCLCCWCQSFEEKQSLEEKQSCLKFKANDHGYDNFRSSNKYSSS

[2] = biological target: T2, Alpha-1A adrenergic receptor (Homo sapiens, UniProt P35348)
T2 sequence (P35348 whole entry): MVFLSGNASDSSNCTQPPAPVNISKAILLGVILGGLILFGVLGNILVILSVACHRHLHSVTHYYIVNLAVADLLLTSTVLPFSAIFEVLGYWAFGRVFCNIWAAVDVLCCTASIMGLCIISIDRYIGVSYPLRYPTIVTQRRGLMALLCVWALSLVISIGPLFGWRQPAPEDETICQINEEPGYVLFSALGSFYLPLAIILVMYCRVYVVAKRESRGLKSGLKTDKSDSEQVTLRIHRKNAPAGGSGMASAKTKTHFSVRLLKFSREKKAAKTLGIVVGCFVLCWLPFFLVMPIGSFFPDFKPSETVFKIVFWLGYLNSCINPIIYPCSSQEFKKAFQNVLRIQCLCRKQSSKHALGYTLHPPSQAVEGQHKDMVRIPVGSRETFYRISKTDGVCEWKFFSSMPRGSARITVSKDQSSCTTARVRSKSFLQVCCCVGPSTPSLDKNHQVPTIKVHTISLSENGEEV

[3] = biological target: Voltage-dependent N-type calcium channel subunit alpha-1B (Rattus norvegicus, UniProt Q02294); assay type: functional
Chain of Voltage-dependent N-type calcium channel subunit alpha-1B (Q02294 whole entry): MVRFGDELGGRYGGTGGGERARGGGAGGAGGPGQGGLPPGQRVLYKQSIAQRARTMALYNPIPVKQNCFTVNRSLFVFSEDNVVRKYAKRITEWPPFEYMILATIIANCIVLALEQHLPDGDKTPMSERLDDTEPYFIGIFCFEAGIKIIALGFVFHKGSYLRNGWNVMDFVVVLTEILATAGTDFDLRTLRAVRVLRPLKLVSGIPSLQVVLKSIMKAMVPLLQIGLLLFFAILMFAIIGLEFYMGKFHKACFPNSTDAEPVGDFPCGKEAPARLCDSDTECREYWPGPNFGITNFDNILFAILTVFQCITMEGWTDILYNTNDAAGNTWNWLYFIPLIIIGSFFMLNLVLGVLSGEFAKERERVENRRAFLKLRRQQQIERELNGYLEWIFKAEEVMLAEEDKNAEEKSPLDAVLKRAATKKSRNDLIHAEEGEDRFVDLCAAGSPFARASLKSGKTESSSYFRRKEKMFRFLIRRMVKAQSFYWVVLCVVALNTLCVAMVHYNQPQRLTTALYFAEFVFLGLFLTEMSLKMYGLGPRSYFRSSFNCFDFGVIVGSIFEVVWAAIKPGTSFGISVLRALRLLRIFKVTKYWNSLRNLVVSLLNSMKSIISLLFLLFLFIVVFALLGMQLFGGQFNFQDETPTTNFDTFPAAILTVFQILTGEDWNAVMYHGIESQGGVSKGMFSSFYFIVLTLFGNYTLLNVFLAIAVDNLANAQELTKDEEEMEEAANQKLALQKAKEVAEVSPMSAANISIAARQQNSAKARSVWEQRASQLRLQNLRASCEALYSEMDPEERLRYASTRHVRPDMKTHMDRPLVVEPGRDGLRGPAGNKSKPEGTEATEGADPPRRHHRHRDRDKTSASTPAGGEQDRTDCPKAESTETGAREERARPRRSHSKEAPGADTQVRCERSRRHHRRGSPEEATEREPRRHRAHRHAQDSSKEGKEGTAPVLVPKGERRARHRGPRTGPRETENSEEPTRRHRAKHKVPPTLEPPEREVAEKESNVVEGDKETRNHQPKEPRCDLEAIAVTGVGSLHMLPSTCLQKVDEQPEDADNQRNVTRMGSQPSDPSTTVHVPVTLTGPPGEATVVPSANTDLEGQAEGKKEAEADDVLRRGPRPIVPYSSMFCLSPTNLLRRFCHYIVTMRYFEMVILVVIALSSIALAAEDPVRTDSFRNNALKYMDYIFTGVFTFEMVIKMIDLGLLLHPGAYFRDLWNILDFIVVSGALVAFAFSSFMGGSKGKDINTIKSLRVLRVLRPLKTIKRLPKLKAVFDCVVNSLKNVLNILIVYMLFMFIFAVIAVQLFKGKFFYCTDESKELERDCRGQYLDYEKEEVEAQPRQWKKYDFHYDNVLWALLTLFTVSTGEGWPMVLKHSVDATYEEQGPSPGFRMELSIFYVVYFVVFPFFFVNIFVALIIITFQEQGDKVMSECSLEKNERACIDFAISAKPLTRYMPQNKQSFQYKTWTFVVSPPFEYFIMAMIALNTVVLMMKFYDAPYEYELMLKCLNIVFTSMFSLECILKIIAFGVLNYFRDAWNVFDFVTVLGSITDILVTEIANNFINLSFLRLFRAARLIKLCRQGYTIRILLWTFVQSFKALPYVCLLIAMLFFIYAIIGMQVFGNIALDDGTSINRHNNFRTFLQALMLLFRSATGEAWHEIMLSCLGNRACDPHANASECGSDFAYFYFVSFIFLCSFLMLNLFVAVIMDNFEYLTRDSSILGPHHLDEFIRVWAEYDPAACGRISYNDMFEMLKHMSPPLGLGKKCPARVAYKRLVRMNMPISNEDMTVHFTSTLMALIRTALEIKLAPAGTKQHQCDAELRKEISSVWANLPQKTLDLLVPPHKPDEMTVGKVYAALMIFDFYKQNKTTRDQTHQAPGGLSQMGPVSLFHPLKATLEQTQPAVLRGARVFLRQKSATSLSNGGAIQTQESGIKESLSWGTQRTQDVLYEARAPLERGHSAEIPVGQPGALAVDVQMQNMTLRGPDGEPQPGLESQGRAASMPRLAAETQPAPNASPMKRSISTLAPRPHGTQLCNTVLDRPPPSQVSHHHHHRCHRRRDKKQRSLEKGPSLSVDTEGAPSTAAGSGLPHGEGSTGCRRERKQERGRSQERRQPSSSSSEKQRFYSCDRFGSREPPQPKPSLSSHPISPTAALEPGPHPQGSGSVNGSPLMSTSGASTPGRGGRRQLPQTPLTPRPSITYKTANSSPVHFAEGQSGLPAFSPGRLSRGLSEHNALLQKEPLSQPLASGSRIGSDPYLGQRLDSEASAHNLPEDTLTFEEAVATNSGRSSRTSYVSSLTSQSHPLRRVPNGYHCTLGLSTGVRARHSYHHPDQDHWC

[4] = biological target: T3, Corticotropin-releasing factor receptor 1 (Homo sapiens, UniProt P34998)
T3 sequence (P34998 whole entry): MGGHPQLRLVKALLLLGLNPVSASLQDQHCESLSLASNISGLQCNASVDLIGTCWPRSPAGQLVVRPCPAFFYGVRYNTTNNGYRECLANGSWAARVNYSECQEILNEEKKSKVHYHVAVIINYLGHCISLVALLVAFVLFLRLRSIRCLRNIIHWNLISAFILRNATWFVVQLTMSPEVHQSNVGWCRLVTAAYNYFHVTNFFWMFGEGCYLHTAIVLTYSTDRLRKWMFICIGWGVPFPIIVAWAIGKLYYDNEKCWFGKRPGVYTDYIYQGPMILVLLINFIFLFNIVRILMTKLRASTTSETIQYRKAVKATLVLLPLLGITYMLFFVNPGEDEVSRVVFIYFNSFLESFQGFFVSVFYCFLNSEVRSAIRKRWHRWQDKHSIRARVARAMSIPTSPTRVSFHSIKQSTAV

[5] = biological target: T4, Neuropeptide Y receptor type 2 (Homo sapiens, UniProt P49146)
T4 sequence (P49146 whole entry): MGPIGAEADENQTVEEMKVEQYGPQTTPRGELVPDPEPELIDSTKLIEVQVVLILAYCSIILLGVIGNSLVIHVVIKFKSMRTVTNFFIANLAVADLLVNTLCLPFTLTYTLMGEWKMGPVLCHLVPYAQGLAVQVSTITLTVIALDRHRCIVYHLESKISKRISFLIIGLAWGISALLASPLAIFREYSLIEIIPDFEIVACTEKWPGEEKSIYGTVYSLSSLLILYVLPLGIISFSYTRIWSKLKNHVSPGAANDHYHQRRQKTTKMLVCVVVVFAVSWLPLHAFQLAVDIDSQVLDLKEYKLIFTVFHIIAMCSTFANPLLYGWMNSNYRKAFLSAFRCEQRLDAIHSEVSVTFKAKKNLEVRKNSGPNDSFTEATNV

B1 bradykinin receptor = biological target: T5, B1 bradykinin receptor (Homo sapiens, UniProt P46663)
T5 sequence (P46663 whole entry): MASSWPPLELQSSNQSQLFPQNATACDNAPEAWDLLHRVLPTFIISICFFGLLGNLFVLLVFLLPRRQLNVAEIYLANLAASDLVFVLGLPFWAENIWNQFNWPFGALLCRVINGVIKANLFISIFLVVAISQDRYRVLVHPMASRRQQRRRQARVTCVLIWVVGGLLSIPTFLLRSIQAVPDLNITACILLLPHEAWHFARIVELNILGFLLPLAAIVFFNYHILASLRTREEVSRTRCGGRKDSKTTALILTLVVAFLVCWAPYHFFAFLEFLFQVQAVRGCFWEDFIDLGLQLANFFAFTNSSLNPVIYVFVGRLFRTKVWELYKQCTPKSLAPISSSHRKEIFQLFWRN

[6] = biological target: T6, Alpha-2A adrenergic receptor (Homo sapiens, UniProt P08913)
T6 sequence (P08913 whole entry): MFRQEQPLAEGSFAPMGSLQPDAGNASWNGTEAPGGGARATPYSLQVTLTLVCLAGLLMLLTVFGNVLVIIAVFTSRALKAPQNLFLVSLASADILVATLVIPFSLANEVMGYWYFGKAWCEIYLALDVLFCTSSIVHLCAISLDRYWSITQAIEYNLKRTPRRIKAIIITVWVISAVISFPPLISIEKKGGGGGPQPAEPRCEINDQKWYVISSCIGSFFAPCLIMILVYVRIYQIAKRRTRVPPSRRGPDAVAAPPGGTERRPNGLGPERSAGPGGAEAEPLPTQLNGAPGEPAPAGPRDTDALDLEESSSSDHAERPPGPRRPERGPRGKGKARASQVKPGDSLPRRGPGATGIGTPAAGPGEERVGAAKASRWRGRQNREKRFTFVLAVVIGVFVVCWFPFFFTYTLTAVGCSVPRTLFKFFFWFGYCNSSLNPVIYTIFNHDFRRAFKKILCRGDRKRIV

[7] = biological target: Gamma-aminobutyric acid receptor subunit alpha-1 (Rattus norvegicus, UniProt P62813)
Chain of Gamma-aminobutyric acid receptor subunit alpha-1 (P62813 whole entry): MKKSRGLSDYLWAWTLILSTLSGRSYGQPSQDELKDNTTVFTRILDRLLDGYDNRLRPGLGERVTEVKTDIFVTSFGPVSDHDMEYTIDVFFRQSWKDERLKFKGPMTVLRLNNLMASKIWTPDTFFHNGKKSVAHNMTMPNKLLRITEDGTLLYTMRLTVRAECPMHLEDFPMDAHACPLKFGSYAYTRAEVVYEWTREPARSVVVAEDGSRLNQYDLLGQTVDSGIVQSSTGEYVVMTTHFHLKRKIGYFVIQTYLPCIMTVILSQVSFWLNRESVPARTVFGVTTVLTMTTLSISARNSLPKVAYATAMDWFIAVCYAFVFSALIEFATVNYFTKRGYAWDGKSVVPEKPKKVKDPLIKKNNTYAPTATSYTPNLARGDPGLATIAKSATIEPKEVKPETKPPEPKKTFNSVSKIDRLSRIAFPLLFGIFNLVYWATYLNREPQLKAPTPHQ
Also: assay procedure not described here.

Chain of Glucagon receptor (P47871 whole entry): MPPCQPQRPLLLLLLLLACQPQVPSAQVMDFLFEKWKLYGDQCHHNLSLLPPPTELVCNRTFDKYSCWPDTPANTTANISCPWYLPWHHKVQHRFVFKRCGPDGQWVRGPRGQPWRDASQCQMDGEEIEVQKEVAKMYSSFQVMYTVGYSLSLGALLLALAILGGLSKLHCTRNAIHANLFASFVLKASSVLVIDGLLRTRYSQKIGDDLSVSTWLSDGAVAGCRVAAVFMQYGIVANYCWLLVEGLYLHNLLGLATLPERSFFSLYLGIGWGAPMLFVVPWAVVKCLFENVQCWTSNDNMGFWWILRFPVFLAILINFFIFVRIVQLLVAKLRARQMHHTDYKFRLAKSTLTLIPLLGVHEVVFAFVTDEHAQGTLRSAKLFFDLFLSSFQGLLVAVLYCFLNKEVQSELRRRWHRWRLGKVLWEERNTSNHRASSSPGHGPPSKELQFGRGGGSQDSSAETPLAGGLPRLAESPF
Chain of Estrogen receptor beta (Q92731 whole entry): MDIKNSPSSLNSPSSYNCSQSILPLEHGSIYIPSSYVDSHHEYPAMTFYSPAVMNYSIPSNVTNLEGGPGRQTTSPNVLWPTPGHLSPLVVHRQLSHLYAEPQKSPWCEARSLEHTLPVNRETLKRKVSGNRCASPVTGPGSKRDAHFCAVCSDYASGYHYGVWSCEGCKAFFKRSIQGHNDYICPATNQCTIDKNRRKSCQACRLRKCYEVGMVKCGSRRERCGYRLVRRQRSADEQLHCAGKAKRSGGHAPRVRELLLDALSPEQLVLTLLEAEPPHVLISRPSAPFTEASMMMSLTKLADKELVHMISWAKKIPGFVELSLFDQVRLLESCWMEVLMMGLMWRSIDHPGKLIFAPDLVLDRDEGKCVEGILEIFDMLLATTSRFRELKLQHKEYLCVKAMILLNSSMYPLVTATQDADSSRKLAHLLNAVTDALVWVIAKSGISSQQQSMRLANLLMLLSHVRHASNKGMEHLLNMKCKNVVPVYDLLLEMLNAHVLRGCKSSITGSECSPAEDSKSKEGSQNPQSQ

| Structure (SMILES) | AC50 (Estrogen receptor beta) [µM] | AC50 (Glucagon receptor) [µM] | AC50 [1] [µM] | AC50 [2] [µM] | AC50 [3] [µM] | AC50 [4] [µM] | AC50 [5] [µM] | AC50 (B1 bradykinin receptor) [µM] | AC50 [6] [µM] | AC50 [7] [µM] |
| --- | --- | --- | --- | --- | --- | --- | --- | --- | --- | --- |
| CC1=C(C(=O)O)N2C(=O)[C@@H](NC(=O)[C@H](N)c3ccccc3)[C@H]2SC1 [CEPHALEXIN ANHYDROUS] | > 30 | > 30 | > 30 | > 10 | > 10 | > 30 | > 30 | > 30 | > 10 |  |
| Cc1cn([C@H]2C=C[C@@H](CO)O2)c(=O)[nH]c1=O [STAVUDINE] | > 30 | > 30 | > 30 | > 10 | > 10 | > 30 | > 30 | > 30 | > 10 | > 30 |
| NCC(CC(=O)O)c1ccc(Cl)cc1 (configuration not stated) [BACLOFEN] | > 30 | > 30 | > 30 | > 10 | > 10 | > 30 | > 30 | > 30 | > 10 |  |
| CC[C@H]1OC(=O)[C@H](C)[C@@H](O[C@H]2C[C@@](C)(OC)[C@@H](O)[C@H](C)O2)[C@H](C)[C@@H](O[C@@H]2O[C@H](C)C[C@H](N(C)C)[C@H]2O)[C@](C)(O)C[C@@H](C)CN(C)[C@H](C)[C@@H](O)[C@]1(C)O [AZITHROMYCIN] | > 30 | > 30 | > 30 | > 10 | > 10 | > 30 | > 30 | > 30 | > 10 | > 30 |
| CCC(C)n1ncn(-c2ccc(N3CCN(c4ccc(OCC5COC(Cn6cncn6)(c6ccc(Cl)cc6Cl)O5)cc4)CC3)cc2)c1=O (configuration not stated) [ITRACONAZOLE] | > 30 | > 30 | > 30 | > 10 | > 10 | > 30 | > 30 | > 30 | > 10 |  |

From ChEMBL document CHEMBL5291721, “A preclinical secondary pharmacology resource illuminates target-adverse drug reaction associations of marketed drugs” (Nat Commun, 2023)
